From patent publication US9850258B2, “Substituted tetrahydrocarbazole and carbazole carboxamide compounds” (BRISTOL-MYERS SQUIBB COMPANY, priority 2013, dated 2017)
Where two headings read alike, the source gives them in different places.

Key:
Jak2 tyrosine kinase = Jak2 tyrosine kinase (Homo sapiens (Human), UniProt O60674); assay: Jak2 Tyrosine Kinase Assay; type: biochemical; details: for IC50: Jak2 tyrosine kinase, ATP 30 μM
human recombinant Btk = human recombinant Btk (Homo sapiens (Human), UniProt Q06187); assay: Human Recombinant Btk Enzyme Assay; type: biochemical
[1] = tested on: CD69 expression on B cells in human whole blood; assay: Whole Blood Assay of BCR-Stimulated CD69 Expression on B Cells; type: cell-based

Jak2 tyrosine kinase, sequence (O60674 whole entry): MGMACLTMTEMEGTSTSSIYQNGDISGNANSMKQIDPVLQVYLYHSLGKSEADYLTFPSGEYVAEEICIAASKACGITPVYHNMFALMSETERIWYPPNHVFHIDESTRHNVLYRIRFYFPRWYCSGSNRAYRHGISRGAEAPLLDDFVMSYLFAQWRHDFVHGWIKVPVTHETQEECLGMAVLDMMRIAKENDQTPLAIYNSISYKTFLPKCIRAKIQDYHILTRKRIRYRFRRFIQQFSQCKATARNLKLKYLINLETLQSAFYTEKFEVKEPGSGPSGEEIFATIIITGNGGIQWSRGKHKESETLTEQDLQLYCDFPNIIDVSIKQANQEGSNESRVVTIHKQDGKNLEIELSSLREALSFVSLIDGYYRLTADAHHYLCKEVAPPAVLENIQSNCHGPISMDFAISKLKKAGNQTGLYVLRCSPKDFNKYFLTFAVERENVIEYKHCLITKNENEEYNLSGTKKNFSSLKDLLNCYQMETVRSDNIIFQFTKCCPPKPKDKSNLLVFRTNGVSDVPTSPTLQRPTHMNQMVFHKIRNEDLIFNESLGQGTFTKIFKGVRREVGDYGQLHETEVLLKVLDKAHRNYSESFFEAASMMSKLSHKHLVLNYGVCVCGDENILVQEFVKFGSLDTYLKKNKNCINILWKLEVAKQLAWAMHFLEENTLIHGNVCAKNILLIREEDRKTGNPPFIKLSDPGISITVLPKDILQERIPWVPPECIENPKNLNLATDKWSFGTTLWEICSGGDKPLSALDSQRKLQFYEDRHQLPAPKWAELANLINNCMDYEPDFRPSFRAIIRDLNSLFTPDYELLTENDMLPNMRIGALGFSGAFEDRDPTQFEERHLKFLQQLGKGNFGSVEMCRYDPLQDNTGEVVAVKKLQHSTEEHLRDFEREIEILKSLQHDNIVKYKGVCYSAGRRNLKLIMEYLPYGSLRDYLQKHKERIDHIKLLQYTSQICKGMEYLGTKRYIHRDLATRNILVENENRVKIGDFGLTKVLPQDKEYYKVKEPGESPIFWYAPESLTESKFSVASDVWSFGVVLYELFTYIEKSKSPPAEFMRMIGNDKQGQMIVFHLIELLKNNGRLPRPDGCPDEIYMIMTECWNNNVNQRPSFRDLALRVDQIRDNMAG
human recombinant Btk, sequence (Q06187 whole entry): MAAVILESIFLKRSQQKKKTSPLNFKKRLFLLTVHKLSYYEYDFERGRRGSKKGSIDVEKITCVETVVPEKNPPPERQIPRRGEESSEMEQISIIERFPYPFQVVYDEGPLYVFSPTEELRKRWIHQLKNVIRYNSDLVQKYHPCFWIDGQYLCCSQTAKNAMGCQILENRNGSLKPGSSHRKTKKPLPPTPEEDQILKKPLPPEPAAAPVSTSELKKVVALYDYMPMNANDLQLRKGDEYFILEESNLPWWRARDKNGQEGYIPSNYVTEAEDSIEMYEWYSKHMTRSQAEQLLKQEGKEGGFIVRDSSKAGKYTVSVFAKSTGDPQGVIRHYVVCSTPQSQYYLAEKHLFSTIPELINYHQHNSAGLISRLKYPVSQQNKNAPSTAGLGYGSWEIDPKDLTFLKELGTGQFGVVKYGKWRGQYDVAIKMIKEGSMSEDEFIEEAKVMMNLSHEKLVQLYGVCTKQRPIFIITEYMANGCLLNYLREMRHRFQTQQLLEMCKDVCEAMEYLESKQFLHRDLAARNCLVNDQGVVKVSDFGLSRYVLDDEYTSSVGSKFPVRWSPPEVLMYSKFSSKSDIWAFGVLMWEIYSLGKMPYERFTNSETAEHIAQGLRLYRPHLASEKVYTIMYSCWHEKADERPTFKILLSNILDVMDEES

Row | Compound | Ratio of Jak2/Btk IC50 values (Jak2 tyrosine kinase; kinase selectivity of Btk over Jak2, larger value = more selective for Btk) | IC50 (Jak2 tyrosine kinase) [nM] | Ratio of Jak2/Btk IC50 values (Jak2 tyrosine kinase; selectivity of Btk over Jak2) | IC50 (human recombinant Btk) [nM] | IC50 ([1]; Homo sapiens, B-cell) [nM] | IC50 [1] [nM]
1 | Cc1nc(C(N)=O)c2[nH]c3cc(C(C)(C)O)ccc3c2c1-c1cccc(-n2cnc3ccccc3c2=O)c1C [Comparative Example 76, 7-(2-Hydroxypropan-2-yl)-3-methyl-4-(2-methyl-3-(4-oxoquinazolin-3(4H)-yl)phenyl)-9H-pyrido[3,4-b]indole-1-carboxamide, reference compound] | 29 | – | – | – | – | –
2 | Cc1c(-c2c(Cl)cc(C(N)=O)c3[nH]c4cc(C(C)(C)O)ccc4c23)cccc1-n1c(=O)c2cccc(C)c2n(C)c1=O [Example 4, 3-Chloro-4-(R)-(3-(1,8-dimethyl-2,4-dioxo-1,2-dihydroquinazolin-3(4H)-yl)-2-methylphenyl)-7-(2-hydroxypropan-2-yl)-9H-carbazole-1-carboxamide] | – | 350 | 270 | 1.3 | – | –
3 | Cc1c(-c2c(Cl)cc(C(N)=O)c3[nH]c4cc(C(C)(C)O)ccc4c23)cccc1-n1c(=O)c2ccc(F)cc2n(C)c1=O [Example 9, 3-Chloro-4-(R)-(3-(7-fluoro-1-methyl-2,4-dioxo-1,2-dihydroquinazolin-3(4H)-yl)-2-methylphenyl)-7-(2-hydroxypropan-2-yl)-9H-carbazole-1-carboxamide] | – | > 2000 | >3200 | 0.62 | – | –
4 | Cn1c(=O)n(-c2cccc(-c3c(Cl)cc(C(N)=O)c4[nH]c5cc(C(C)(C)O)ccc5c34)c2Cl)c(=O)c2ccccc21 [Example 42, 3-Chloro-4-(2-chloro-3-(1-methyl-2,4-dioxo-1,2-dihydroquinazolin-3(4H)-yl)phenyl)-7-(2-hydroxypropan-2-yl)-9H-carbazole-1-carboxamide] | – | – | – | 2 | – | –
5 | Cc1c(-c2c(F)cc(C(N)=O)c3[nH]c4cc(C(C)(C)O)ccc4c23)cccc1-n1c(=O)[nH]c2c(F)cccc2c1=O [Example 20, 3-Fluoro-4-(3-(8-fluoro-2,4-dioxo-1,2-dihydroquinazolin-3(4H)-yl)-2-methylphenyl)-7-(2-hydroxypropan-2-yl)-9H-carbazole-1-carboxamide] | – | 1200 | 2600 | 0.46 | – | –
6 | Cc1c(-c2c(Cl)cc(C(N)=O)c3[nH]c4cc(C(C)(C)O)ccc4c23)cccc1-n1c(=O)ccn(-c2ccc(F)cc2)c1=O [Example 24, 3-Chloro-4-(R)-(3-(3-(4-fluorophenyl)-2,6-dioxo-2,3-dihydropyrimidin-(6H)-yl)-2-methylphenyl)-7-(2-hydroxypropan-2-yl)-9H-carbazole-1-carboxamide] | – | 1800 | 5500 | 0.33 | – | –
7 | Cc1c(-c2c(Cl)cc(C(N)=O)c3[nH]c4cc(C(C)(C)O)ccc4c23)cccc1-n1c(=O)ccn(-c2ccc(F)cc2)c1=O [Example 23, 3-Chloro-4-(3-(3-(4-fluorophenyl)-2,6-dioxo-2,3-dihydropyrimidin-1(6H)-yl)-2-methylphenyl)-7-(2-hydroxypropan-2-yl)-9H-carbazole-1-carboxamide] | – | 440 | 1000 | 0.44 | – | –
8 | Cc1c(-c2c(Cl)cc(C(N)=O)c3[nH]c4cc(C(C)(C)O)ccc4c23)cccc1-n1c(=O)[nH]c2c(F)cc(F)cc2c1=O (racemic) [Example 10, 3-Chloro-4-(RS)-(3-(RS)-(6,8-difluoro-2,4-dioxo-1,2-dihydroquinazolin-3(4H)-yl)-2-methylphenyl)-7-(2-hydroxypropan-2-yl)-9H-carbazole-1-carboxamide] | – | > 2000 | >2400 | 0.83 | – | –
9 | Cn1c(=O)n(-c2cccc(-c3c(Cl)cc(C(N)=O)c4[nH]c5cc(C(C)(C)O)ccc5c34)c2Cl)c(=O)c2ccccc21 [Example 43, 3-Chloro-4-(R)-(2-chloro-3-(1-methyl-2,4-dioxo-1,2-dihydroquinazolin-3(4H)-yl)phenyl)-7-(2-hydroxypropan-2-yl)-9H-carbazole-1-carboxamide] | – | – | – | 0.47 | – | –
10 | Cn1c(=O)n(-c2cccc(-c3c(Cl)cc(C(N)=O)c4[nH]c5cc(C(C)(C)O)ccc5c34)c2Cl)c(=O)c2cccc(F)c21 [Example 44, 3-Chloro-4-(2-chloro-3-(8-fluoro-1-methyl-2,4-dioxo-1,2-dihydroquinazolin-3(4H)-yl)phenyl)-7-(2-hydroxypropan-2-yl)-9H-carbazole-1-carboxamide] | – | – | – | 4.7 | – | –
11 | Cc1c(-c2c(F)cc(C(N)=O)c3[nH]c4cc(C(C)(C)O)ccc4c23)cccc1-n1c(=O)[nH]c2c(F)cc(F)cc2c1=O (single isomer, unassigned) [Example 73] | – | – | – | – | 21 | –
12 | COc1cccc2c(=O)n(-c3cccc(-c4c(Cl)cc(C(N)=O)c5[nH]c6cc(C(C)(C)O)ccc6c45)c3C)c(=O)n(C)c12 [Example 7, 3-Chloro-7-(2-hydroxypropan-2-yl)-4-(R)-(3-(8-methoxy-1-methyl-2,4-dioxo-1,2-dihydroquinazolin-3(4H)-yl)-2-methylphenyl)-9H-carbazole-1-carboxamide] | – | 1600 | 2000 | 0.81 | – | –
13 | Cc1cc(C(N)=O)c2[nH]c3cc(C(C)(C)O)ccc3c2c1-c1cccc(-n2c(=O)c3cccc(F)c3n(C)c2=O)c1C (atropisomer, axis not shown) [Example 29, 4-(R)-(3-(S)-(8-Fluoro-1-methyl-2,4-dioxo-1,2-dihydroquinazolin-3(4H)-yl)-2-methylphenyl)-7-(2-hydroxypropan-2-yl)-3-methyl-9H-carbazole-1-carboxamide] | – | 790 | – | 0.66 | – | –
14 | Cc1c(-c2c(F)cc(C(N)=O)c3[nH]c4cc(C(C)(C)O)ccc4c23)cccc1-n1c(=O)c2cccc(F)c2n(C)c1=O [Example 17, 3-Fluoro-4-(3-(8-fluoro-1-methyl-2,4-dioxo-1,2-dihydroquinazolin-3(4H)-yl)-2-methylphenyl)-7-(2-hydroxypropan-2-yl)-9H-carbazole-1-carboxamide] | – | 170 | – | – | – | –
15 | Cc1c(-c2c(F)cc(C(N)=O)c3[nH]c4cc(C(C)(C)O)ccc4c23)cccc1-n1c(=O)c2cccc(F)c2n(C)c1=O (atropisomer, axis not shown) [Example 18, 3-Fluoro-4-(3-(S)-(8-fluoro-1-methyl-2,4-dioxo-1,2-dihydroquinazolin-3(4H)-yl)-2-methylphenyl)-7-(2-hydroxypropan-2-yl)-9H-carbazole-1-carboxamide] | – | 2200 | – | – | – | –
16 | CC(C)(O)c1ccc2c(c1)[nH]c1c(C(N)=O)cc(Cl)c(-c3cccc(-n4c(=O)[nH]c5c(F)cccc5c4=O)c3Cl)c12 [Example 47, 3-Chloro-4-(R)-(2-chloro-3-(8-fluoro-2,4-dioxo-1,2-dihydroquinazolin-3(4H)-yl)phenyl)-7-(2-hydroxypropan-2-yl)-9H-carbazole-1-carboxamide] | – | 1800 | 5100 | 0.35 | – | –
17 | Cc1c(-c2c(Cl)cc(C(N)=O)c3[nH]c4cc(C(C)(C)O)ccc4c23)cccc1-n1c(=O)c2cc(F)ccc2n(C)c1=O [Example 8, 3-Chloro-4-(R)-(3-(6-fluoro-1-methyl-2,4-dioxo-1,2-dihydroquinazolin-3(4H)-yl)-2-methylphenyl)-7-(2-hydroxypropan-2-yl)-9H-carbazole-1-carboxamide] | – | > 2000 | >3100 | 0.65 | – | –
18 | Cc1c(-c2c(F)cc(C(N)=O)c3[nH]c4cc(C(C)(C)O)ccc4c23)cccc1-n1c(=O)c2cccc(F)c2n(C)c1=O (atropisomer, axis not shown) [Example 19, 3-Fluoro-4-(R)-(3-(S)-(8-fluoro-1-methyl-2,4-dioxo-1,2-dihydroquinazolin-3(4H)-yl)-2-methylphenyl)-7-(2-hydroxypropan-2-yl)-9H-carbazole-1-carboxamide] | – | 2000 | – | – | – | 91
19 | Cc1c(-c2c(Cl)cc(C(N)=O)c3[nH]c4cc(C(C)(C)O)ccc4c23)cccc1-n1c(=O)c2ccccc2n(C)c1=O [Example 3, 3-Chloro-7-(2-hydroxypropan-2-yl)-4-(R)-(2-methyl-3-(1-methyl-2,4-dioxo-1,2-dihydroquinazolin-3(4H)-yl)phenyl)-9H-carbazole-1-carboxamide] | – | 2000 | 2000 | 1 | – | –
